Reference: patent US4857547A, “Novel HMG-CoA reductase inhibitors” (Merck & Co., Inc., priority 1988, dated 1989)

Molecular target: T1, HMG-CoA reductase (Rattus norvegicus, UniProt P51639)
T1 sequence (P51639 1-887): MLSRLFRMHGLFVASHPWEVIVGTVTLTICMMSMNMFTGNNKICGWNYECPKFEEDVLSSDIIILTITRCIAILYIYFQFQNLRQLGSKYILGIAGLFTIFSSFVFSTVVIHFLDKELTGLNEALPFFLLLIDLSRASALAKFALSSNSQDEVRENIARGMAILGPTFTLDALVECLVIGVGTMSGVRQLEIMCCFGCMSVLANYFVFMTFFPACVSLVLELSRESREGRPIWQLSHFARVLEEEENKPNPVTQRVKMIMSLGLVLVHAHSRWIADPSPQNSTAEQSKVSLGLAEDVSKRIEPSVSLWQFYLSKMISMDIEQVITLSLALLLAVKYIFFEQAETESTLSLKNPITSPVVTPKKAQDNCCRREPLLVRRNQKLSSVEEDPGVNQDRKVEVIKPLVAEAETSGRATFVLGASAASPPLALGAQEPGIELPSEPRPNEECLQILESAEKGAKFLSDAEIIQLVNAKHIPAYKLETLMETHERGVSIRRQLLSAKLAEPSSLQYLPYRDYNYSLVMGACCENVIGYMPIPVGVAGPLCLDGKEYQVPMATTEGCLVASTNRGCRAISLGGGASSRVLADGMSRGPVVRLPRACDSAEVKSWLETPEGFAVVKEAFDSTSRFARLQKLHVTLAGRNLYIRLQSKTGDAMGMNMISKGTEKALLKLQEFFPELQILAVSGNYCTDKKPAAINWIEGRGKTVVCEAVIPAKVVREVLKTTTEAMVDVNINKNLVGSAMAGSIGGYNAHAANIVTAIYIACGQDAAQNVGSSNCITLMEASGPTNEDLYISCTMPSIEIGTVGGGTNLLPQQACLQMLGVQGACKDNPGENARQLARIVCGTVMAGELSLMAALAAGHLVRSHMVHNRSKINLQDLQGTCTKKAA
Assay: intrinsic HMG-CoA reductase inhibition, in vitro protocol (J. Med. Chem., 28, p. 347-358 (1985))
Type: biochemical
Conditions: compactin (mevastatin) assigned a value of 100; IC50 of test compound compared with that of mevastatin determined simultaneously
Experimental: The intrinsic HMG-CoA reductase inhibition activity of the claimed compounds is measured in the in vitro protocol published in J. Med. Chem., 28, p. 347-358 (1985).
For estimation of relative inhibitory potencies, compactin (i.e., mevastatin) was assigned a value of 100 and the IC50 value of the test compound was compared with that of mevastatin (compactin) determined simultaneously in the published in vitro protocol.

## CCC(C)(C)C(=O)O[C@H]1CC(CO)=CC2=CC[C@H](C)[C@H](CC[C@@H]3C[C@@H](O)CC(=O)O3)[C@H]21 [Example 1, 6(R)-[2-[8(S)-(2,2-dimethylbutyryloxy)-2(S)-methyl-6-hydroxymethyl-1,2,3,7,8,8a(R)-hexahydronaphthyl-1(S)]-ethyl]-4(R)-hydroxy-3,4,5,6-tetrahydro-2H-pyran-2-one]
  Relative Potency: 75

## CCC(C)(C)C(=O)O[C@H]1CC(C(=O)O)=CC2=CC[C@H](C)[C@H](CC[C@@H]3C[C@@H](O)CC(=O)O3)[C@H]21 [Example 2, 6(R)-[2-[8(S)-(2,2-dimethylbutyryloxy)-2(S)-methyl-6-carboxy-1,2,3,7,8,8a(R)-hexahydronaphthyl-1(S)]-ethyl]-4(R)-hydroxy-3,4,5,6-tetrahydro-2H-pyran-2-one]
  Relative Potency: 100

## CCC(C)(C)C(=O)O[C@H]1CC(COC(=O)Nc2ccccc2)=CC2=CC[C@H](C)[C@H](CC[C@@H]3C[C@@H](O)CC(=O)O3)[C@H]21 [Example 4, 6(R)-[2-[8(S)-(2,2-dimethylbutyryloxy)-2(S)-methyl-6-phenylaminocarbonyloxymethyl-1,2,3,7,8,8a(R)-hexahydronaphthyl-1(S)]-ethyl]-4(R)-hydroxy-3,4,5,6-tetrahydro-2H-pyran-2-one]
  Relative Potency: 200
